The text below walks through data of patent publication US20220087990A1, “APPLICATION OF RIFAMYCIN-QUINOLIZIDONE CONJUGATE MOLECULE AND PHARMACEUTICALLY ACCEPTABLE SALT THEREOF” (priority 2019, published 2022).

For assay [1], the system named is Staphylococcus aureus ATCC 29213. Kind of assay: MIC measured by fluid broth microdilution method (quality control). It is filed as cell-based. As to conditions: ATCC29213. Background: In broth dilution the organism is exposed to a series of concentrations in liquid medium.
For assay [2] the test system is unchanged. Kind of assay: MIC measured by agar dilution method, quality control strain. It is filed as cell-based. As to conditions: strain 100, MSSA QC strain. Here is the method:
(§1) Spontaneous mutation and minimal inhibit concentration (MIC) tested by agar dilution method, the above compounds are respectively prepared into a stock solution (100X) with a concentration 100 times the highest final concentration in corresponding solvents and used on the same day. Before use, I is further diluted with DMSO; and oxacillin, rifampicin and levofloxacin are further diluted with water.
(§2) Bacterial isolates: Staphylococcus aureus isolates are retrieved from the −80° C. storage room of Micromyx Culture Collection, thawed, plated onto Tryptic Soy Agar+5% sheep blood (Remel; Lenexa, Kans.), and then incubated aerobically at 35° C. overnight. S. aureus ATCC 29213 (MRSA; MMX 0100) was included during testing only for the purpose of quality control. Test Media: The isolates were tested in both the agar dilution MIC assay and the spontaneous mutation assay using Mueller-Hinton Agar (MHA; BD/BBL; Lot No. 6229829 & 4216798). Inocula of each isolate were suspended in cation-adjusted Mueller-Hinton Broth (CAMHB) (BD/BBL; Lot Nos. 5257869 & 6258541). Sodium chloride (Sigma-Aldrich; Lot No. SLBL0434V) was added to CAMHB at a final concentration of 2% when testing oxacillin. Dilutions of bacterial cell suspensions for the purpose of performing colony counts were also made in CAMHB.
(§3) MIC measured by agar dilution method: according to the recommendation from the Clinical and Laboratory Standards Institute (CLSI), the MIC value is measured by the agar dilution method. […] Each test agent was combined with molten MHA agar (50-55° C.) at a ratio of 0.2 mL of 100× test agent to 19.8 mL agar in a sterile tube, mixed gently, and then poured into a sterile petri plate (BD Falcon). Plates were allowed to solidify at room temperature. A 0.5 McFarland standard bacterial suspension was prepared, diluted 1:10 in CAMHB, and transferred to the wells of a stainless steel replicator block before stamping onto plates containing drug, resulting in 10^4 CFU/spot. After allowing the inoculum to dry on the surface of the agar, the plates were inverted, incubated aerobically at 35° C. for 20-24 hr, and inspected for growth.
In parallel experiments, a standard bacterium suspension with a […] turbidity of 0.5 is prepared as a standard inoculum for agar dilution analysis (10^4 CFU/point). […] In this step, the broths and drugs used in the spontaneous mutation analysis are used to confirm that the concentration of the drug stock solution can inhibit the growth of the standard inoculum. The quality of the levofloxacin stock solution is controlled by a standard inoculum and levofloxacin of 8-0.008 μg/mL, and separate agar dilution analysis is performed. […]

Assay [3] relates to methicillin-resistant Staphylococcus aureus (MRSA) isolates. Kind of assay: MIC measured by agar dilution method (CLSI). As to conditions: for MIC: Staphylococcus aureus, MRSA. Format: cell-based. Here is the method: as §1, §2, §3
(In general: Agar dilution tests growth on a series of plates holding different concentrations.)

In assay [4] the test system is Staphylococcus aureus ATCC 29213. As to conditions: agar dilution; cited from earlier work.
Where [5] appears, read: strain 3085, LEV^S RIF^S, agar dilution.
[6] abbreviates: strain 3090, LEV^R RIF^S, agar dilution.
Setting [7] is: strain 3094, LEV^R RIF^S, agar dilution.
Where [8] appears, read: strain 3098, LEV^S RIF^S, agar dilution.
Where [9] appears, read: strain 3265, LEV^R RIF^S, agar dilution.
The mark [10] stands for this setting: strain 3266, LEVR RIFS, agar dilution.
The mark [11] stands for this setting: strain 3270, LEV^R RIF^S, agar dilution.
Where [12] appears, read: strain 3271, LEV^R RIF^S, agar dilution.
Where [13] appears, read: strain 3277, LEV^S RIF^S, agar dilution.
[14] abbreviates: strain 3278, LEV^S RIF^S, agar dilution.
[15] abbreviates: strain 6312, LEV^R RIF^S, agar dilution.
Where [16] appears, read: strain 6313, LEV^R RIF^S, agar dilution.
[17] abbreviates: strain 6315, LEV^R RIF^S, agar dilution.
Setting [18] is: strain 6498, LEV^R RIF^S, agar dilution.
The mark [19] stands for this setting: strain 6501, LEV^R RIF^S, agar dilution.
Where [20] appears, read: strain 6505, LEV^R RIF^S, agar dilution.
The mark [21] stands for this setting: strain 7771, LEV^R RIF^S, agar dilution.
Where [22] appears, read: strain 7772, LEV^S RIF^S, agar dilution.
Setting [23] is: strain 7773, LEV^R RIF^S, agar dilution.
Setting [24] is: strain 7774, LEV^R RIF^S, agar dilution.
[25] abbreviates: strain 7775, LEV^R, agar dilution.

Values after ≈ are worked out from the molar mass of the structure shown. Like-named read-outs stand apart in the source and are kept apart here. A value given as a limit tells only on which side of the number the result lay.

What is called MIC is the lowest concentration that inhibits growth of the organism. Consider `C[C@H]1COc2c(N3CCN(C)CC3)c(F)cc3c(=O)c(C(=O)O)cn1c23` [Levofloxacin], for which the MIC was 0.25 µg/mL (≈ 0.692 µM) in assay [1]; 0.25 µg/mL (≈ 0.692 µM) in assay [2]; 0.25 to 64 µg/mL (≈ 0.692 to 177 µM) in assay [3] (read-out: MIC over all strains under test); 0.25 µg/mL (≈ 0.692 µM) in assay [3] (setting [5]); 32 µg/mL (≈ 88.6 µM) in assay [3] (setting [6]); more than 64 µg/mL in assay [3] (setting [7]). In addition, the MIC was determined as 0.25 µg/mL (≈ 0.692 µM) in assay [3] (setting [8]); 64 µg/mL (≈ 177 µM) in assay [3] (setting [9]); 64 µg/mL (≈ 177 µM) in assay [3] (setting [10]); 4 µg/mL (≈ 11.1 µM) in assay [3] (setting [11]); 4 µg/mL (≈ 11.1 µM) in assay [3] (setting [12]); 0.25 µg/mL (≈ 0.692 µM) in assay [3] (setting [13]). Moreover, the MIC in assay [3] (setting [14]) was 0.25 µg/mL (≈ 0.692 µM); in assay [3] (setting [15]), 16 µg/mL (≈ 44.3 µM); in assay [3] (setting [16]), 16 µg/mL (≈ 44.3 µM); in assay [3] (setting [17]) it was more than 64 µg/mL; in assay [3] (setting [18]), 8 µg/mL (≈ 22.1 µM); in assay [3] (setting [19]), 8 µg/mL (≈ 22.1 µM). The MIC in assay [3] (setting [20]) is 4 µg/mL (≈ 11.1 µM); in assay [3] (setting [21]) it was more than 64 µg/mL; in assay [3] (setting [22]) it was 0.25 µg/mL (≈ 0.692 µM); in assay [3] (setting [23]), 8 µg/mL (≈ 22.1 µM); in assay [3] (setting [24]) it was more than 64 µg/mL; in assay [3] (setting [25]) it was 16 µg/mL (≈ 44.3 µM).
`Cc1onc(-c2ccccc2)c1C(=O)N[C@@H]1C(=O)N2[C@@H]1SC(C)(C)[C@@H]2C(=O)O` [Oxacillin]: the “MIC quality control range of CLSI” value in assay [4] was 0.12 to 0.5 µg/mL. The MIC in assay [2] was 0.25 µg/mL (≈ 0.623 µM); in assay [3] (setting [5]), more than 8 µg/mL; in assay [3] (setting [6]) it was more than 8 µg/mL; in assay [3] (setting [7]), more than 8 µg/mL; in assay [3] (setting [8]), more than 8 µg/mL; in assay [3] (setting [9]), more than 8 µg/mL. Further, the MIC in assay [3] (setting [10]), in assay [3] (setting [11]), in assay [3] (setting [12]), in assay [3] (setting [13]), in assay [3] (setting [14]) and in assay [3] (setting [15]) was more than 8 µg/mL throughout. Further, the MIC in assay [3] (setting [16]), in assay [3] (setting [17]), in assay [3] (setting [18]), in assay [3] (setting [19]), in assay [3] (setting [20]) and in assay [3] (setting [21]) was more than 8 µg/mL each time. In addition, the MIC in assay [3] (setting [22]), in assay [3] (setting [23]), in assay [3] (setting [24]) and in assay [3] (setting [25]) was more than 8 µg/mL each time. Also, the “sensitivity of the strains (resistant / sensitive)” value in assay [3] is reported as “resistant”.
